Test results from ChEMBL document CHEMBL1201862, “PubChem BioAssay data set” (2004).
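Step 1: Grow cells in 96-well plates. Step 2: Expose to compound for 48 hours at 5 concentrations. Step 3: Interpolate endpoints linearly; if unreached, use highest concentration. Here, GI50 denotes the concentration required for 50% inhibition of growth.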 Active and inactive are the calls of the source. Rule as the data show it: active = GI50 up to about 1.1 µM and inactive = higher.

Experiments:
Assay in all cases: inhibition of tumour cell growth, NCI panel, 48 h
[1] = system: UACC-62
[2] = system: M14
[3] = system: SNB-75
[4] = system: CAKI-1
[5] = system: SN12C
[6] = system: UO-31
[7] = system: UACC-257
[8] = system: RXF 393
[9] = system: HCC 2998
[10] = system: SF-539
[11] = system: HOP-62
[12] = system: EKVX
[13] = system: A549
[14] = system: NCI-H23
[15] = system: IGROV-1
[16] = system: SK-OV-3

Measured: GI50

CCOC1=C2N=C(Cc3ccccc3F)N=C2C(=O)c2ccccc21
inactive: [1] > 100 µM | [2] > 100 µM | [3] 90.8 µM | [4] > 100 µM | [5] > 100 µM | [6] > 100 µM | [7] > 100 µM | [8] > 100 µM | [9] > 100 µM | [10] > 100 µM | [11] > 100 µM | [12] > 100 µM | [13] > 100 µM | [14] > 100 µM

Cc1c2ccncc2c(C)c2c1[nH]c1ccc(OC(C)(C)C)cc12
inactive: [1] 2.31 µM | [2] 4.06 µM | [3] 1.85 µM | [15] 4.7 µM | [4] 1.81 µM | [6] 1.91 µM | [7] 1.97 µM | [9] 1.85 µM | [16] 4.42 µM | [10] 1.57 µM | [11] 2.88 µM | [12] 11.1 µM | [13] 3.15 µM | [14] 5.36 µM

NC(CCCNCc1ccccc1)C(=O)O (configuration not stated)
inactive: [1] > 100 µM | [2] > 100 µM | [3] > 100 µM | [15] > 100 µM | [4] > 100 µM | [5] > 100 µM | [6] > 100 µM | [7] > 100 µM | [16] > 100 µM | [10] > 100 µM | [11] > 100 µM | [12] > 100 µM | [13] > 100 µM | [14] > 100 µM

CCc1ccc(Cc2ccc(CC)c(NC(=O)C(=O)Cc3nc4ccccc4nc3C)c2CC)c(CC)c1NC(=O)C(=O)Cc1nc2ccccc2nc1C
inactive: [1] > 100 µM | [2] > 100 µM | [3] 9.77 µM | [15] > 100 µM | [4] 25.4 µM | [6] 17.7 µM | [7] > 100 µM | [8] 41.4 µM | [9] 62.5 µM | [16] > 100 µM | [10] 36.8 µM | [11] > 100 µM | [12] 45.9 µM | [13] > 100 µM | [14] > 100 µM

CCCCCCCCCCCc1cc(=O)c2c(O)cccc2o1
inactive: [1] > 100 µM | [2] 64 µM | [3] > 100 µM | [15] > 100 µM | [4] > 100 µM | [5] > 100 µM | [6] > 100 µM | [7] 36 µM | [8] 70.6 µM | [9] 66.2 µM | [16] > 100 µM | [10] > 100 µM | [11] > 100 µM | [12] 56.1 µM | [13] 61.8 µM | [14] > 100 µM

COc1ccc(C(=O)C=C2NCCN2)cc1
inactive: [1] > 100 µM | [2] > 100 µM | [3] > 100 µM | [15] > 100 µM | [4] > 100 µM | [5] > 100 µM | [6] > 100 µM | [7] > 100 µM | [8] > 100 µM | [9] > 100 µM | [16] > 100 µM | [10] > 100 µM | [11] > 100 µM | [12] > 100 µM | [13] > 100 µM | [14] > 100 µM

CN(C)/N=N/c1c[nH]nc1C(N)=O
inactive: [1] 16.2 µM | [2] > 100 µM | [3] > 100 µM | [15] > 100 µM | [4] > 100 µM | [5] > 100 µM | [7] > 100 µM | [9] > 100 µM | [16] > 100 µM | [10] > 100 µM | [11] > 100 µM | [12] > 100 µM | [13] > 100 µM | [14] > 100 µM

O=C(O)c1cc(S(=O)(=O)N/N=C\c2c3ccccc3[n+]([O-])c3ccccc23)ccc1O
inactive: [1] 8.69 µM | [2] 17.1 µM | [3] 2.58 µM | [15] 22.1 µM | [4] 45.8 µM | [5] 17.9 µM | [6] 17.7 µM | [7] 26.1 µM | [9] 6.97 µM | [16] 38.3 µM | [11] 7.48 µM | [12] 44.4 µM | [13] 22.7 µM | [14] 8.04 µM

CCOC(=O)C(Cc1ccccc1)NC(=O)c1nc[nH]c1/N=N/N(C)C (configuration not stated)
inactive: [1] > 100 µM | [2] > 100 µM | [3] > 100 µM | [15] > 100 µM | [4] > 100 µM | [5] > 100 µM | [6] > 100 µM | [7] > 100 µM | [9] > 100 µM | [16] > 100 µM | [10] > 100 µM | [11] > 100 µM | [12] > 100 µM | [13] > 100 µM | [14] > 100 µM
